Consider 2 compounds from ChEMBL document CHEMBL6134780, “Halogenated retinoid derivatives as dual RARα and RXRα modulators for treating acute promyelocytic leukemia cells” (Eur J Med Chem, 2024).

For one assay, the system named is NB-4. Briefly: Cell cycle arrest in human NB4 cells assessed as accumulation of cells at sub-G1 phase at 0.5 uM incubated for 6 days for DAPI staining based flow cytometric analysis (reference value: 6 %). It is filed as functional. The following applies: time 6 day. For orientation: In flow cytometry, cells or beads pass a laser one at a time.
Assay [1] can be described thus: Induction of apoptosis in human ATRA-resistant NB4-LR2 cells assessed as early apoptotic cells at 1 uM incubated for 24 hrs by Annexin V-FITC/PI staining based flow cytometric analysis (reference value: 5.38 %). It is filed as functional.
Assay [2] has as its system K562. Briefly: Induction of apoptosis in human K562 cells assessed as viable cells at 1 uM incubated for 24 hrs by Annexin V-FITC/PI staining based flow cytometric analysis (reference value: 90.02 %). Format: functional. The following applies: read-out: Activity.
In assay [3] the test system is K562. Briefly: Induction of apoptosis in human K562 cells assessed as late apoptotic cells at 1 uM incubated for 24 hrs by Annexin V-FITC/PI staining based flow cytometric analysis (reference value: 5.98 %). Format: functional.
The subject of assay [4] is HEK293T. Briefly: Agonist activity at full length RARalpha LBD R276E mutant (unknown origin) transfected in HEK293T cells co-transfected with pG5luc reporter and Renilla-luc at 1 uM incubated for 12 hrs by luciferase reporter gene assay. It is filed as cell-based. The following applies: Homo sapiens. A general note: A reporter such as luciferase makes a cellular process visible.

In assay [5] the target is T1, Retinoic acid receptor gamma (Homo sapiens) (UniProt P13631).
T1 sequence (whole entry): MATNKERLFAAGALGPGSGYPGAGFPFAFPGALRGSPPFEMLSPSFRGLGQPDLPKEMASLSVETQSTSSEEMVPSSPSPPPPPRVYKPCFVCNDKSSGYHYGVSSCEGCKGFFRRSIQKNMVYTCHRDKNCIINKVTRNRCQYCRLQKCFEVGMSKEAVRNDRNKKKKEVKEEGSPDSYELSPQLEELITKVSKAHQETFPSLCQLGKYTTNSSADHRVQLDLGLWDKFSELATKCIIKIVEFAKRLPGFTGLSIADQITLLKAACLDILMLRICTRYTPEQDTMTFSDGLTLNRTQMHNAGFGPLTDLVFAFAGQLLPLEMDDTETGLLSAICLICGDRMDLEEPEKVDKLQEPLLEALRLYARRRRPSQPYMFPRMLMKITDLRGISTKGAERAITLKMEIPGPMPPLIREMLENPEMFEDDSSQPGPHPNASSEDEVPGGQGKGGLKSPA
Briefly: Agonist activity at Gal4-fused full length RARgamma LBD (unknown origin) transfected in HEK293T cells co-transfected with pG5luc reporter and Renilla-luc assessed as transactivation at 0.1 to 1 uM incubated for 12 hrs by luciferase reporter gene assay. The following applies: dose 0.1-1 µM. It is filed as cell-based.

In assay [6] the target is Peroxisome proliferator-activated receptor gamma (Homo sapiens) (UniProt P37231). Briefly: Agonist activity at Gal4-fused full length PPARgamma LBD (unknown origin) transfected in HEK293T cells co-transfected with pG5luc reporter and Renilla-luc at 0.1 to 1 uM incubated for 12 hrs by luciferase reporter gene assay. Format: cell-based. The following applies: dose 0.1-1 µM.
Sequence of Peroxisome proliferator-activated receptor gamma (Homo sapiens) (P37231 whole entry, the tested form may be a part): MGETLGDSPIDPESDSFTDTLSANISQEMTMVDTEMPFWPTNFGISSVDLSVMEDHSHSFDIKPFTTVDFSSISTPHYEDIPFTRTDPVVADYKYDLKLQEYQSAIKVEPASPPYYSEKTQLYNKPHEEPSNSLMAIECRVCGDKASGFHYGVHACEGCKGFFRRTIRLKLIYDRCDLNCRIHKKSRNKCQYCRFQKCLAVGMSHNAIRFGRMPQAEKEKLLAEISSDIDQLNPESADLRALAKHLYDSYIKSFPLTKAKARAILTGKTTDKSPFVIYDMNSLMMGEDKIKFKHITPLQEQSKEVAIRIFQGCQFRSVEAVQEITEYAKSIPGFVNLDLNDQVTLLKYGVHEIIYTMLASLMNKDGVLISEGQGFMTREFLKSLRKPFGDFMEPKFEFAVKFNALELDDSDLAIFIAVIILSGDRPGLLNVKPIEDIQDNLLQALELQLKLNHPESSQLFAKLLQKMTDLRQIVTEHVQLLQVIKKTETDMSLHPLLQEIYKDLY

Assay [7] addresses T2, Retinoic acid receptor RXR-gamma (Homo sapiens) (UniProt P48443).
T2 sequence (whole entry): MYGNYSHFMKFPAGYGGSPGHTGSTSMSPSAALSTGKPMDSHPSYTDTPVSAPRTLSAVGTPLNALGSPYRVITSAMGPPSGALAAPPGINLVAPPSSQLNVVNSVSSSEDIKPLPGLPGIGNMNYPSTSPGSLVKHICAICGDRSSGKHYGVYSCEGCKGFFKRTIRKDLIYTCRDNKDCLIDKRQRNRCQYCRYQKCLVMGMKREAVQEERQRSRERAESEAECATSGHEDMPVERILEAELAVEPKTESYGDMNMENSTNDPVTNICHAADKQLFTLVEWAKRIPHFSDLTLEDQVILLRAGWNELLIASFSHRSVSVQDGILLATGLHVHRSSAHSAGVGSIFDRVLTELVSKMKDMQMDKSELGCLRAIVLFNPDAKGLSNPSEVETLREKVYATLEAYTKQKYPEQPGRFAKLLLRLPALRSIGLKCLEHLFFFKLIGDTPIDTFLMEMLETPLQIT
Briefly: Agonist activity at Gal4-fused full length RXRgamma LBD (unknown origin) transfected in HEK293T cells co-transfected with pG5luc reporter and Renilla-luc at 0.1 to 1 uM incubated for 12 hrs by luciferase reporter gene assay. Format: cell-based. The following applies: dose 0.1-1 µM.

For assay [8], the target named is Estrogen receptor (Homo sapiens) (UniProt P03372). Briefly: Agonist activity at Gal4-fused full length ERalpha LBD (unknown origin) transfected in HEK293T cells co-transfected with pG5luc reporter and Renilla-luc at 0.1 to 1 uM incubated for 12 hrs by luciferase reporter gene assay. Format: cell-based. The following applies: dose 0.1-1 µM.
Sequence of Estrogen receptor (Homo sapiens) (P03372 whole entry, the tested form may be a part): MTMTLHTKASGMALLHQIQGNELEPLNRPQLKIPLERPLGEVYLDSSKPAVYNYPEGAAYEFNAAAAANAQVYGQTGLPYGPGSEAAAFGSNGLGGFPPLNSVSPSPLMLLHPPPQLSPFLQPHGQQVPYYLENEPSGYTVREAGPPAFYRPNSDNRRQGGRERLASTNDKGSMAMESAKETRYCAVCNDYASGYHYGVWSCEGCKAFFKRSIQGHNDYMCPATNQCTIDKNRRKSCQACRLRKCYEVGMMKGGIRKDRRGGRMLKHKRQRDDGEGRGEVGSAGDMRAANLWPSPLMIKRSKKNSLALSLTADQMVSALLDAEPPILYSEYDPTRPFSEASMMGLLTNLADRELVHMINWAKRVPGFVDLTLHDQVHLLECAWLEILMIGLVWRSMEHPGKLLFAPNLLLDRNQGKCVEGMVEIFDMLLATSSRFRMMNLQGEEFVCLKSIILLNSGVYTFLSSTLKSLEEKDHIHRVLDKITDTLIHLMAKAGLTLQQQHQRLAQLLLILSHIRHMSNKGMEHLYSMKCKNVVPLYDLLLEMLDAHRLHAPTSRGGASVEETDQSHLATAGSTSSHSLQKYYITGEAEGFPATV
The target in assay [9] is T3, Retinoic acid receptor RXR-beta (Homo sapiens) (UniProt P28702).
T3 sequence (whole entry): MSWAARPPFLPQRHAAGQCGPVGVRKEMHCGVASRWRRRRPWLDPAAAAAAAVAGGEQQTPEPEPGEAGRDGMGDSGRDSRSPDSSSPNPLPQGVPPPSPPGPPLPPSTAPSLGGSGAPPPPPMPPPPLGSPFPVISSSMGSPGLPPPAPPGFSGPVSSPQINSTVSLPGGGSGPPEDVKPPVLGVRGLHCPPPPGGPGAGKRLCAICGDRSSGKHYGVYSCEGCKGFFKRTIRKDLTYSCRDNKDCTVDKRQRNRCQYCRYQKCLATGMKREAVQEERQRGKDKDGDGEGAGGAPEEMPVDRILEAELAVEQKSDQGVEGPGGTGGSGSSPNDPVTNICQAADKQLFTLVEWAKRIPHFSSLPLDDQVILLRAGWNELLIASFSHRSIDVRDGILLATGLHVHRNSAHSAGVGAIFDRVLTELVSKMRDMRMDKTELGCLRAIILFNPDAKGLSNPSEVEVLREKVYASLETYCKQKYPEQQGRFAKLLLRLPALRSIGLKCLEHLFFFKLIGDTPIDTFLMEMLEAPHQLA
Briefly: Competitive binding affinity to Gal4-fused full length RXRbeta LBD (unknown origin) transfected in HEK293T cells co-transfected with pG5luc reporter and Renilla-luc at 0.1 to 1 uM incubated for 12 hrs in presence of ATRA by luciferase reporter gene assay. Format: cell-based. The following applies: dose 0.1-1 µM.

In assay [10] the target is T3, Retinoic acid receptor RXR-beta (Homo sapiens). Briefly: Competitive binding affinity to Gal4-fused full length RXRbeta LBD (unknown origin) transfected in HEK293T cells co-transfected with pG5luc reporter and Renilla-luc assessed as inhibition of 9-cis-RA induced transactivation at 0.1 to 1 uM incubated for 12 hrs by luciferase reporter gene assay. It is filed as cell-based. The following applies: dose 0.1-1 µM.

Assay [11] addresses T1, Retinoic acid receptor gamma (Homo sapiens). Briefly: Agonist activity at Gal4-fused full length human RARgamma LBD transfected in HEK293T cells co-transfected with pG5luc reporter and Renilla-luc assessed as transactivation by measuring maximal efficacy incubated for 12 hrs by dual luciferase reporter gene assay relative to control. It is filed as cell-based.
The test system of assay [12] is HEK293T. Briefly: Agonist activity at 3-Flag-tagged PML-RARalpha/HA-tagged RXRalpha (unknown origin) transfected in HEK293T cells co-transfected with pGL3-beta-RARE and Renilla-luc assessed as increase in transcriptional activity at 1 uM incubated for 12 hrs by luciferase reporter gene assay relative to ATRA. It is filed as cell-based. The following applies: Homo sapiens, filed as agonist.

Assay [13] deals with ATRA-resistant NB4-LR2. Briefly: Induction of mitosis in human ATRA-resistant NB4-LR2 cells assessed as upregulation of pS10-histone expression at 2 uM measured after 3 hrs by Western blot analysis. Format: functional, cell-based.
In assay [14] the test system is ATRA-resistant NB4-LR2. Briefly: Induction of DNA damage in human ATRA-resistant NB4-LR2 cells assessed as increase in gamma-H2AX expression at 2 uM by Western blot analysis. It is filed as functional, cell-based. A general note: A western blot detects proteins with antibodies after separation by electrophoresis.

Structures are written as SMILES. Activity calls are given as the source filed them. No cut-off for these calls is given here.

The term Emax denotes the greatest response seen or fitted, relative to the assay's reference.

Consider `Cc1cc2c(cc1C(=O)/C(Br)=C\c1ccc(C(=O)O)cc1)C(C)(C)CCC2(C)C`, for which the Activity was 6% with NB-4; 20.24% in [1]; 6.86% with K562 [3]; “Weak_effect” in assay [5]; “Weak_effect” in [6]; “Minimal_effect” in assay [7]. Also, the Activity entry in [8] is “Minimal_effect”; in assay [9], “Not active; No Significant Competitive Effect On Atra Activation Observed”; in [10], “Weak_effect”; in the assay on HEK293T [12], above 70%; in the assay with ATRA-resistant NB4-LR2 [14] it was “Active; Dna Damage Detected When Apoptosis Occurred”. Besides, the viability at 1 µM in the assay on K562 [2] was determined as 90.4%. Besides, the result with HEK293T [4] was inactive. The Emax in [11] was 2%. In the assay on ATRA-resistant NB4-LR2 [13], the result was Active.
In the case of `Cc1cc2c(cc1C(=O)/C(Br)=C/c1ccc(C(=O)O)cc1)C(C)(C)CCC2(C)C`, the Activity in the assay with NB-4 was 9%; in assay [1], 29.03%; with K562 [3] it was 7.4%; in assay [5], “Weak_effect”; in [6], “Weak_effect”; in [7] it was “Minimal_effect”. Also, the Activity result is “Minimal_effect” in assay [8]; “Not active; No Significant Competitive Effect On Atra Activation Observed” in assay [9]; “Weak_effect” in assay [10]; above 70% with HEK293T [12]; “Active; Dna Damage Detected When Apoptosis Occurred” in the assay with ATRA-resistant NB4-LR2 [14]. For the same compound, in the assay with K562 [2], the viability at 1 µM stood at 89.3%. Also, the outcome in the assay with HEK293T [4] was inactive. In assay [11], the Emax amounted to 15%. Besides, in the assay with ATRA-resistant NB4-LR2 [13], the result was Active.
